According to patent US12116388B2, “Amylin receptor agonists” (Novo Nordisk A/S, priority 2022, dated 2024):
Starred links: 1 amine or outer side, 2 acyl side, 3 side chain; linkers in the order of their positions; H or OH if unused. Residues, ends and D or L forms follow the SMILES beside them. Groups on a side chain read outwards from the residue. *: point of attachment. C18 diacid = O=C(O)CCCCCCCCCCCCCCCCC(=O)*; γGlu = O=C(O)[C@H](CCC(=O)[*:2])N[*:1]

Tests used:
[1] = biological target: T1, human calcitonin receptor (hCTR) (Homo sapiens, UniProt P30988); assay: Human calcitonin receptor (hCTR) in vitro potency assay, CRE-luciferase reporter in BHK cells; type: cell-based; conditions: BHK hCTR/CRE-Luc cells, 3 hours incubation, assay buffer with 1% ovalbumin; read-out: hCalcR potency, EC50
T1 construct: host or cells: BHK (Baby Hamster Kidney), Hollex-1 cell line
T1 sequence (P30988 25-474): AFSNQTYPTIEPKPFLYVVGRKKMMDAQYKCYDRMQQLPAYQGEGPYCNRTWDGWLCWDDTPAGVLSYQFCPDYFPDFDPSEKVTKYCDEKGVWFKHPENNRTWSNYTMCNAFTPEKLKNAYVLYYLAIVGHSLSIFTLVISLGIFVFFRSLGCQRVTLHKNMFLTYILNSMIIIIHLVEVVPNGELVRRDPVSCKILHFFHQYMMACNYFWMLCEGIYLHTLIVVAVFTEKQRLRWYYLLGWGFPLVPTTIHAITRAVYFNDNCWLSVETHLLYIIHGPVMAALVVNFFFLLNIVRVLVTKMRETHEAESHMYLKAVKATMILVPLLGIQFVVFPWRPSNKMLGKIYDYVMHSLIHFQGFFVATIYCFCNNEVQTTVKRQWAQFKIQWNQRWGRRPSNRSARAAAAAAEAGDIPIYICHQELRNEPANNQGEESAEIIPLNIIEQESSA
How it was run: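 Luciferase signal from a CRE reporter served as the cAMP read-out after 3 h, 37 °C exposure to compound. Cells were stably transfected BHK expressing hCTR, and the buffer was phenol-red-free DMEM with 10 mM HEPES and 1% ovalbumin. Compounds were tested as 7-point, 7-fold dilutions, often from about 10 nM.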

Sprague Dawley (SD) rats = assay: Acute food intake in ad libitum fed rat model; type: in vivo; conditions: single s.c. administration, negative value = reduced food intake
Procedure: Lyophilised compound was dissolved in vehicle, 8 mM phosphate, 250 mM glycerol, 0.007% polysorbate 20, and pH was adjusted to 7.4 with 1N NaOH.
Normal weight Sprague Dawley (SD) rats from Taconic Europe, Denmark, were used for the acute food intake studies. The purpose of these studies was to test in vivo effect on food intake and to provide an indication of the compounds' duration of action. Experiments were conducted with permission from the Danish Animal Experiments Inspectorate and were performed in accordance with the guidelines of the Danish legislation governing animal experimentation (1987) as well as the National Institutes of Health (publication number 85-23) and the European Convention for the Protection of Vertebrate Animals used for Experimental and other Scientific Purposes (Council of Europe No 123, Strasbourg 1985).
Prior to study start, rats were acclimatized to the experimental settings for 14 days. During this period, the animals were handled at least 2 times. Immediately upon arrival, rats were put on a reversed light cycle (dark from 10 am-10 pm or 11 am-11 pm) and were transferred into one of three following food intake measuring systems: FeedWin, BioDaq or HM2. Rats were single housed in the FeedWin and BioDaq system and were housed three a cage in the HM2 system (rats were in this case ID-chipped). During the acclimatization period, in which the rats get used to the new light cycle and diet, the animals had free access to food and water. […] Each amylin analogue was tested in a group of 5-6 rats. A vehicle group of 5-6 rats was included in each experiment and were used as reference point. […] The time of dosing was recorded for each rat.
After dosing, rats were returned to their home cages, where they had access to food and water. Food consumption was recorded individually and continuously by on-line registration for up to 72 h post dosing. At the end of the experiment, body weight was measured again, and animals were euthanized by CO2 overdose.

SMILES | EC50 [1] [pM] | Food intake relative to vehicle (%) 0-24 hr, 3 nmol/kg (Sprague Dawley (SD) rats; 0-24 hr) [%] | Food intake relative to vehicle (%) 24-48 hr, 3 nmol/kg (Sprague Dawley (SD) rats; 24-48 hr) [%] | Food intake relative to vehicle (%) 48-72 hr, 3 nmol/kg (Sprague Dawley (SD) rats; 48-72 hr) [%]
CC[C@H](C)[C@H](NC(=O)[C@@H]1CCCN1C(=O)CNC(=O)[C@H](Cc1ccccc1)NC(=O)[C@H](CC(N)=O)NC(=O)[C@H](CC(=O)O)NC(=O)[C@H](CO)NC(=O)[C@H](CO)NC(=O)[C@H](Cc1c[nH]cn1)NC(=O)[C@H](Cc1c[nH]cn1)NC(=O)[C@H](CC(C)C)NC(=O)[C@H](Cc1ccccc1)NC(=O)[C@H](CCC(=O)O)NC(=O)[C@H](C)NC(=O)[C@H](CC(C)C)NC(=O)[C@H](CCCNC(=N)N)NC(=O)[C@H](C)NC(=O)[C@@H](NC(=O)[C@H](CCC(N)=O)NC(=O)[C@H](C)NC(=O)[C@@H](NC(=O)[C@H](CO)NC(=O)[C@H](CC(C)C)NC(=O)[C@H](CCC(N)=O)NC(=O)[C@H](CO)NC(=O)[C@H](C)NC(=O)CC[C@H](NC(=O)CCCCCCCCCCCCCCCCC(=O)O)C(=O)O)[C@@H](C)O)[C@@H](C)O)C(=O)N[C@@H](CC(C)C)C(=O)N1CCC[C@H]1C(=O)N1CCC[C@H]1C(=O)N[C@H](C(=O)N[C@@H](CC(=O)O)C(=O)N[C@H](C(=O)NCC(=O)N[C@@H](CO)C(=O)N[C@@H](CC(N)=O)C(=O)N[C@H](C(=O)N1CCC[C@H]1C(N)=O)[C@@H](C)O)C(C)C)[C@@H](C)O [Compound 22, N^1-[(4S)-4-carboxy-4-(17-carboxyheptadecanoylamino)butanoyl]-[Ala1,Ser2,Gln3,Leu4,Ser5,Ala7,Gln8,Ala10,Glu14,His17,Asp21,Pro25,Pro28,Pro29,Asp31,Pro37]-human amylin] ({C18 diacid-γGlu}-ASQLSTAQTARLAEFLHHSSDNFGPILPPTDVGSNTP-NH2) | 1.86 | – | – | –
CC[C@H](C)[C@H](NC(=O)[C@H](C)NC(=O)CNC(=O)[C@H](Cc1ccccc1)NC(=O)[C@@H]1CCCN1C(=O)[C@H](CC(=O)O)NC(=O)[C@H](CO)NC(=O)[C@H](CO)NC(=O)[C@H](Cc1c[nH]cn1)NC(=O)[C@H](Cc1c[nH]cn1)NC(=O)[C@H](CC(C)C)NC(=O)[C@H](Cc1ccccc1)NC(=O)[C@H](CCC(=O)O)NC(=O)[C@H](C)NC(=O)[C@H](CC(C)C)NC(=O)[C@H](CCCNC(=N)N)NC(=O)[C@H](CCC(N)=O)NC(=O)[C@@H](NC(=O)[C@H](CCC(N)=O)NC(=O)[C@H](C)NC(=O)[C@@H](NC(=O)[C@H](CO)NC(=O)[C@H](CC(C)C)NC(=O)[C@H](CCC(N)=O)NC(=O)[C@H](CO)NC(=O)[C@H](C)NC(=O)CC[C@H](NC(=O)CCCCCCCCCCCCCCCCC(=O)O)C(=O)O)[C@@H](C)O)[C@@H](C)O)C(=O)N1CCC[C@H]1C(=O)N[C@@H](CO)C(=O)N[C@@H](CO)C(=O)N[C@H](C(=O)N[C@@H](CC(=O)O)C(=O)N[C@H](C(=O)NCC(=O)N1CCC[C@H]1C(=O)N[C@@H](CC(=O)O)C(=O)N[C@H](C(=O)N1CCC[C@H]1C(N)=O)[C@@H](C)O)C(C)C)[C@@H](C)O [Compound 24] ({C18 diacid-γGlu}-ASQLSTAQTQRLAEFLHHSSDPFGAIPSSTDVGPDTP-NH2) | 1.56 | – | – | –
CC[C@H](C)[C@H](NC(=O)[C@H](C)NC(=O)CNC(=O)[C@H](Cc1ccccc1)NC(=O)[C@@H]1CCCN1C(=O)[C@H](CC(=O)O)NC(=O)[C@H](CO)NC(=O)[C@H](CO)NC(=O)[C@H](Cc1c[nH]cn1)NC(=O)[C@H](Cc1c[nH]cn1)NC(=O)[C@H](CC(C)C)NC(=O)[C@H](Cc1ccccc1)NC(=O)[C@H](CCC(=O)O)NC(=O)[C@H](C)NC(=O)[C@H](CC(C)C)NC(=O)[C@H](CCCNC(=N)N)NC(=O)[C@H](C)NC(=O)[C@@H](NC(=O)[C@H](CCC(N)=O)NC(=O)[C@H](C)NC(=O)[C@@H](NC(=O)[C@H](CO)NC(=O)[C@H](CC(C)C)NC(=O)[C@H](Cc1c[nH]cn1)NC(=O)[C@H](CO)NC(=O)[C@H](C)NC(=O)CC[C@H](NC(=O)CCCCCCCCCCCCCCCCC(=O)O)C(=O)O)[C@@H](C)O)[C@@H](C)O)C(=O)N1CCC[C@H]1C(=O)N[C@@H](CO)C(=O)N[C@@H](CO)C(=O)N[C@H](C(=O)N[C@@H](CC(=O)O)C(=O)N[C@H](C(=O)NCC(=O)N1CCC[C@H]1C(=O)N[C@@H](CC(=O)O)C(=O)N[C@H](C(=O)N1CCC[C@H]1C(N)=O)[C@@H](C)O)C(C)C)[C@@H](C)O [Compound 25, N^1-[(4S)-4-carboxy-4-(17-carboxyheptadecanoylamino)butanoyl]-[Ala1,Ser2,His3,Leu4,Ser5,Ala7,Gln8,Ala10,Glu14,His17,Asp21,Pro22,Pro27,Asp31,Pro34,Asp35,Pro37]-human amylin] ({C18 diacid-γGlu}-ASHLSTAQTARLAEFLHHSSDPFGAIPSSTDVGPDTP-NH2) | 1.5 | – | – | –
CC[C@H](C)[C@H](NC(=O)[C@H](CCCCNC(=O)CC[C@H](NC(=O)CCCCCCCCCCCCCCCCC(=O)O)C(=O)O)NC(=O)CNC(=O)[C@H](Cc1ccccc1)NC(=O)[C@H](CC(N)=O)NC(=O)[C@H](CC(=O)O)NC(=O)[C@H](CO)NC(=O)[C@H](CO)NC(=O)[C@H](Cc1c[nH]cn1)NC(=O)[C@H](Cc1c[nH]cn1)NC(=O)[C@H](CC(C)C)NC(=O)[C@H](Cc1ccccc1)NC(=O)[C@H](CCC(=O)O)NC(=O)[C@H](C)NC(=O)[C@H](CC(C)C)NC(=O)[C@H](CCCNC(=N)N)NC(=O)[C@H](C)NC(=O)[C@@H](NC(=O)[C@H](CCC(N)=O)NC(=O)[C@H](C)NC(=O)[C@@H](NC(=O)[C@H](CO)NC(=O)[C@H](CC(C)C)NC(=O)[C@H](Cc1c[nH]cn1)NC(=O)[C@H](CO)NC(=O)[C@H](C)NC(C)=O)[C@@H](C)O)[C@@H](C)O)C(=O)N[C@@H](CC(C)C)C(=O)N1CCC[C@H]1C(=O)N1CCC[C@H]1C(=O)N[C@H](C(=O)N[C@@H](CC(=O)O)C(=O)N[C@H](C(=O)NCC(=O)N[C@@H](CO)C(=O)N[C@@H](CC(N)=O)C(=O)N[C@H](C(=O)N1CCC[C@H]1C(N)=O)[C@@H](C)O)C(C)C)[C@@H](C)O [Compound 41, N^1-acetyl,N{Epsilon-25}-[(4S)-4-carboxy-4-(17-carboxyheptadecanoylamino)butanoyl]-[Ala1,Ser2,His3,Leu4,Ser5,Ala7,Gln8,Ala10,Glu14,His17,Asp21,Lys25,Pro28,Pro29,Asp31,Pro37]-human amylin] (Ac-ASHLSTAQTARLAEFLHHSSDNFGK([γGlu-C18 diacid])ILPPTDVGSNTP-NH2) | 1.16 | −88 | −76 | −15
